Results from patent US12637479B2, “Low energy gap small molecule material and organic optoelectronic device using the same” (Raynergy Tek Incorporation, priority 2021, dated 2026).

What was measured:
Format in all cases: physicochemical
[1] = UV-Vis-NIR absorption spectra in chloroform solution
Method: (§1) Please refer to FIG. 2 to FIG. 4 and Table 1.
(§2) The highest occupied molecular orbital (HOMO) is calculated from HOMO=−|4.71÷E^xo−E^ferroncene|eV. The optical energy gap

[2] = Energy levels by cyclic voltammetry (HOMO, LUMO)
Method: as §2
(§3) [formula] of the UV-Vis-NIR absorption spectrum in film state. The lowest unoccupied molecular orbital (LUMO) is calculated from LUMO=HOMO+Eg eV.

[3] = Solubility measurement in o-xylene; conditions: 8 mg sample in 1 mL o-xylene
From the text: Among them, “O” means complete dissolution, and “X” means incomplete dissolution. […] In the art, it is an industry trend to use non-halogenated green solvents. Green solvents generally come from renewable resources or can be degraded by soil organisms or other substances, have a short half-life, and are easily decayed into low-toxic and non-toxic substances. Therefore, green solvents are generally less harmful to biological health and the environment than general solvents that are easily chlorinated or highly toxic. Green solvents are also called environmentally friendly solvents. O-xylene is a non-halogen green solvent.

[4] = UV-Vis-NIR absorption spectra in film, optical energy gap from absorption onset
Method: as §1, §2
[formula] of the material is known from the absorption onset position
as §3

λsoln^max ([1]; chloroform solution): 965 nm
ε ([1]; maximum absorption coefficient): 1.41 10^5 cm^−1 M^−1
LUMO ([2]; LUMO=HOMO+Eg): −4.32 eV
HOMO ([2]; cyclic voltammetry): −5.17 eV
Solubility [3]: ◯
λfilm^max ([4]; film): 1029 nm
λfilm^onset ([4]; film): 1455 nm
Eg^opt ([4]; from absorption onset in film state): 0.85 eV
Compound: CCCCCCCCCCCCc1cc(-c2c3c(c(-c4cc(CCCCCCCCCCCC)c(-c5cc6c(s5)-c5sc(-c7sc(-c8c9c(c(-c%10cc(CCCCCCCCCCCC)c(/C=C%11\C(=O)c%12cc(F)c(F)cc%12C%11=C(C#N)C#N)s%10)c%10nn(CC(CC)CCCC)nc8%10)N=S=N9)cc7CCCCCCCCCCCC)cc5C6(c5cc(CCCCCC)cc(CCCCCC)c5)c5cc(CCCCCC)cc(CCCCCC)c5)s4)c4nn(CC(CC)CCCC)nc24)N=S=N3)sc1/C=C1\C(=O)c2cc(F)c(F)cc2C1=C(C#N)C#N (centres unmarked) [Q4]
